Source: US8133849B2, “Herbicidal compounds” (Syngenta Limited, priority 2007, dated 2012)

How the values were obtained:
Assay in all cases: Example B2 herbicidal action, post-emergence, pots in glasshouse, damage score 0-10
Assay type in all cases: in vivo
Conditions in all cases: application post-emergence, rate 1000 g/ha, evaluated after 13 days
Amaranthus retroflexus = tested on: Amaranthus retroflexus
Procedure: (§1) Seeds of a variety of test species were sown in standard soil in pots. After 8 days cultivation (post-emergence) under controlled conditions in a glasshouse (at 24/16° C., day/night; 14 hours light; 65% humidity), the plants were sprayed with an aqueous spray solution derived from the formulation of the technical active ingredient in acetone/water (50:50) solution containing 0.5% Tween 20 (polyoxyethelyene sorbitan monolaurate, CAS RN 9005-64-5). The test plants were then grown in a glasshouse under controlled conditions in a glasshouse (at 24/16° C., day/night; 14 hours light; 65% humidity) and watered twice daily. After 13 days, the test was evaluated (10=total damage to plant; 0=no damage to plant).

Echinochloa crus-galli = tested on: Echinochloa crus-galli
Procedure: as §1

Ipomea hederaceae = tested on: Ipomea hederaceae
Procedure: as §1

Setaria faberi = tested on: Setaria faberi
Procedure: as §1

Solanum nigrum = tested on: Solanum nigrum
Procedure: as §1

| SMILES | AMARE damage score (10=total damage to plant; 0=no damage to plant) (Amaranthus retroflexus) | ECHCG damage score (10=total damage to plant; 0=no damage to plant) (Echinochloa crus-galli) | IPOHE damage score (10=total damage to plant; 0=no damage to plant) (Ipomea hederaceae) | SETFA damage score (10=total damage to plant; 0=no damage to plant) (Setaria faberi) | SOLNI damage score (10=total damage to plant; 0=no damage to plant) (Solanum nigrum) |
| --- | --- | --- | --- | --- | --- |
| CC(C)C(=O)OC1=C(c2ccc(Cl)cc2Cl)S(=O)(=O)N(CCF)c2nccnc21 [Compound C58, isobutyric acid 3-(2,4-dichloro-phenyl)-1-(2-fluoroethyl)-2,2-dioxo-1,2-dihydro-2-λ-6-thia-1,5,8-triaza-naphthalen-4-yl ester] | 10 | 6 | 9 | 4 | 9 |
| O=S1(=O)C(c2cc(C(F)(F)F)ccc2Cl)=C(O)c2nccnc2N1CC(F)F [Compound D16, 3-(2-chloro-5-trifluoromethyl-phenyl)-1-(2,2-difluoro-ethyl)-2,2-dioxo-1,2-dihydro-2-λ-6-thia-1,5,8-triaza-naphthalen-4-ol] | 10 | 5 | 9 | 2 | 10 |
| O=S1(=O)C(c2ccc(C(F)(F)F)cc2C(F)(F)F)=C(O)c2nccnc2N1CC(F)F [Compound D55] | 10 | 5 | 10 | 4 | 10 |
| CCOC(=O)OC1=C(c2cc(Cl)cc(C(F)(F)F)c2)S(=O)(=O)N(CC(F)F)c2nccnc21 [Compound C124] | 10 | 0 | 2 | 0 | 2 |
| O=S1(=O)C(c2c(Cl)cccc2C(F)(F)F)=C(O)c2nccnc2N1CC(F)F [Compound D11] | 10 | 8 | 9 | 8 | 10 |
| COc1ccc(Cl)c(C2=C(OC(=O)C(C)C)c3nccnc3N(CC(F)F)S2(=O)=O)c1F [Compound C143] | 1 | 4 | 8 | 0 | 10 |
| CCN1c2nccnc2C(OC(=O)C(C)C)=C(c2ccccc2[N+](=O)[O-])S1(=O)=O [Compound C67] | 0 | 0 | 2 | 0 | 1 |
| C=CCN1c2nccnc2C(OC(=O)C(C)(C)C)=C(c2cc(Cl)ccc2C(F)(F)F)S1(=O)=O [Compound C118] | 6 | 5 | 4 | 4 | 8 |
| CCN1c2nccnc2C(O)=C(c2cccc(C(F)(F)F)c2)S1(=O)=O [Compound D3] | 10 | 1 | 1 | 0 | 1 |
| CC(C)(C)C(=O)OC1=C(c2ccccc2OC(F)(F)F)S(=O)(=O)N(CC(F)F)c2nccnc21 [Compound C21] | 7 | 6 | 9 | 4 | 10 |
| CCN1c2nccnc2C(OC(=O)C(C)(C)C)=C(c2cc(C(F)(F)F)ccc2C(F)(F)F)S1(=O)=O [Compound C46] | 4 | 4 | 5 | 0 | 6 |
| O=S1(=O)C(c2ccccc2C(F)(F)F)=C(O)c2nccnc2N1CC(F)F [Compound D31] | 10 | 9 | 10 | 9 | 10 |
| CC(C)C(=O)OC1=C(c2ccccc2SC(F)(F)F)S(=O)(=O)N(CC(F)F)c2nccnc21 [Compound C18] | 9 | 1 | 6 | 0 | 3 |
| O=S1(=O)C(c2cc(C(F)(F)F)ccc2Br)=C(O)c2nccnc2N1CC(F)F [Compound D30] | 10 | 6 | 10 | 3 | 10 |
| CC(C)C(=O)OC1=C(c2cc(I)ccc2Cl)S(=O)(=O)N(CC(F)F)c2nccnc21 [Compound C54] | 6 | 3 | 8 | 2 | 8 |
| C#CCN1c2nccnc2C(OC(=O)C(C)C)=C(c2c(Cl)ccc(Cl)c2C(F)(F)F)S1(=O)=O [Compound C84] | 9 | 7 | 8 | 7 | 10 |
| CCN1c2nccnc2C(O)=C(c2c(F)ccc(Br)c2Cl)S1(=O)=O [Compound D13] | 8 | 5 | 9 | 2 | 9 |
| CCN1c2nccnc2C(OC(=O)C(C)(C)C)=C(c2cc(Cl)ccc2C(F)(F)F)S1(=O)=O [Compound C108] | 4 | 3 | 3 | 2 | 7 |
| CC(C)C(=O)OC1=C(c2c(F)ccc(Cl)c2Cl)S(=O)(=O)N(CC(F)F)c2nccnc21 [Compound C36] | 9 | 7 | 10 | 3 | 9 |
